Experimental data published in article PMC12691742, “Anti-Cancer Outcome of Glucocorticoid Receptor Transrepression by Synephrine Derivatives in Hematological Malignancies” (International Journal of Molecular Sciences, 2025).

Tested on: K562 cells
Test: Cell cycle analysis by PI flow cytometry in K562 cells
Assay type: cell-based
Conditions: 24 h, 10S-E2 6.25 µM
Description: Figure 5 Pro-apoptotic and anti-cancer effects of synephrine derivatives in vitro and in vivo. (A) Effect of 4S-C2, 8S-E3, 10S-E2, and 13S-G2 on cell cycle progression in K562 and Granta cells after 24 h of incubation. The cells were fixed with ethanol, stained with propidium iodide, and analyzed using flow cytometry. Statistically significant difference compared to control: *—p < 0.05, **—p < 0.01 (n = 3). (B) In vivo anti-cancer activity was evaluated using the transplantable P388 murine lymphoma model. […] Tumor nodule size was measured twice a week using digital calipers. Statistically significant differences compared to the control: * p < 0.05, ** p < 0.01.
The distribution of cells by cell cycle phases was evaluated using propidium iodide (PI) staining, as described in [19]. […] After incubation, the cells were resuspended in 70% ethanol and fixed for 2h at 4 °C. Cells were then washed twice with cold PBS, pH 7.4, and stained with 500 µL of cold propidium iodide (PI) solution (50 µg/mL PI, 1% Triton X-100, and 100 µg/mL RNase A in PBS). The cell cycle distribution of cells in samples was analyzed using an FACSCalibur Flow Cytometer (“BD Biosciences”, San Jose, CA, USA). The experiments were performed in triplicate.

In the case of `CCCCCCNCC(O)c1ccc(OCc2ccccc2)cc1` (stereo not drawn) [10S-E2, 1-[4-(benzyloxy)phenyl]-2-(hexylamino)ethanol], the induction of apoptosis is reported as “did not induce apoptosis”, the “number of cells in the G1 phase” value is reported as “decrease in the number of cells in the G1 phase” and the “number of replicating cells in the S phase” value is reported as “increased the number of replicating cells in the S phase”.
